Counter-ions that a name gives are not always drawn.
Assay: DTNB assay: rate of disulfide bond reduction
Assay type: biochemical
Set-up: unit not given here
Details: 2nd order kinetic
Experimental: DTNB ASSAY: This assay determines the rate which a mucolytic agent can reduce a disulfide bond using 5,5-Dithiobis(2-nitrobenzoic acid). DTNB in various pH buffers and allows comparison of the kinetic rates of reducing agents. First, reducing agent stock solutions (30 mM) were made up in DMSO. Each compound stock solution was diluted, […] in 1 ml 50 mM Tris-HCl buffer, pH 7.5, and then added in a 1:1 volumetric ratio to a solution of 100 mM DTNB in 50 mM Tris-HCl buffer, pH 7.5. Max Abs412 was measured and then utilized to calculate the activity concentration. If the observed activity concentrations differed from expected activity concentrations by more than 5%, the volume was accordingly adjusted to kinetically test the rate in the next step. After having added the reducing agents, diluted in a range of pH buffer solutions (pH 6.0-7.5), to 45 mM DTNB in 50 mM Tris-HCl and measured the Abs412 for 5 min rates were calculated as a 2nd order kinetic.

SMILES | Kinetic Reaction Rates of Reduction of DTNB (pH 6) | Kinetic Reaction Rates of Reduction of DTNB (pH 6.5) | Kinetic Reaction Rates of Reduction of DTNB (pH 7) | Kinetic Reaction Rates of Reduction of DTNB (pH 7.5)
O[C@H](CS)[C@H](O)CS (racemic) [DTT, dithiothreitol, reference compound] | 69 | 176 | 382 | 2088
N=C(N)NCCCC[C@H](N)C(=O)NCCOc1ccc(CS)c(CS)c1 [C, (S)-2-amino-N-(2-(3,4-bis(mercaptomethyl)phenoxy)ethyl)-6-guanidinohexanamide] | 2460 | 7122 | 12313 | 17317
N=C(N)NCCCC[C@@H](N)C(=O)NCCOc1ccc(CS)c(CS)c1 [Compound B, (R)-2-amino-N-(2-(3,4-bis(mercaptomethyl)phenoxy)ethyl)-6-guanidinohexanamide Hydrochloride] | 1491 | – | – | –
CC(=O)NCCCC[C@H](N)C(=O)NCCOc1ccc(CS)c(CS)c1 [Compound K, (S)-6-acetamido-2-amino-N-(2-(3,4-bis(mercaptomethyl)phenoxy)ethyl)hexanamide] | 678 | 1820 | 3775 | 9143
OC[C@@H](O)[C@@H](O)[C@H](O)[C@@H](O)CNCCOc1ccc(CS)c(CS)c1 [Compound O, (2R,3R,4R,5S)-6-(2-(3,4-bis(mercaptomethyl)phenoxy)ethylamino)hexane-1,2,3,4,5-pentaol hydrochloride] | 921 | 2500 | 5412 | 13547
NCCCC[C@@H](N)C(=O)NCCOc1ccc(CS)c(CS)c1 [Compound V, (R)-2,6-diamino-N-(2-(3,4-bis(mercaptomethyl)phenoxy)ethyl)hexanamide Hydrochloride] | 1419 | 4568 | 6192 | 10043
NCCCC[C@H](N)C(=O)NCCOc1cc(CS)c(CS)cc1OCCNC(=O)[C@@H](N)CCCCN [Compound W, (2S,2′S)-N,N′-(2,2′-(4,5-bis(mercaptomethyl)-1,2-phenylene)bis(oxy)bis(ethane-2,1-diyl))bis(2,6-diaminohexanamide) Hydrochloride] | 4850 | – | – | –
N=C(N)NCCCC[C@H](N)C(=O)NCCCC[C@H](N)C(=O)NCCOc1ccc(CS)c(CS)c1 [E, (S)-2-amino-N-((S)-5-amino-6-(2-(3,4-bis(mercaptomethyl)phenoxy)ethylamino)-6-oxohexyl)-6-guanidinohexanamide Hydrochloride] | 5933 | 13718 | 16393 | 17109
N=C(N)NCCCC[C@H](N)C(=O)NCCOc1cc(CS)c(CS)cc1OCCNC(=O)[C@@H](N)CCCCNC(=N)N [H, (2S,2′S)-N,N′-(2,2′-(4,5-bis(mercaptomethyl)-1,2-phenylene)bis(oxy)bis(ethane-2,1-diyl))bis(2-amino-6-guanidinohexanamide) Hydrochloride] | 6835 | – | – | –
CC(C)(C)OC(=O)NCCOc1ccc(CS)c(CS)c1 [I, tert-butyl 2-(3,4-bis(mercaptomethyl)phenoxy)ethylcarbamate] | 285 | 745 | 1916 | 7265
NCCOc1ccc(CS)c(CS)c1 [KK, (4-(2-aminoethoxy)-1,2-phenylene)dimethanethiol] | 873 | 2411 | 5163 | 13896
NCCCC[C@H](N)C(=O)NCCOc1ccc(CS)c(CS)c1 [L, (S)-2,6-diamino-N-(2-(3,4-bis(mercaptomethyl)phenoxy)ethyl)hexanamide] | 1911 | 5565 | 8847 | 14566
N=C(N)NCCOc1ccc(CS)c(CS)c1 [LL, 1-(2-(3,4-bis(mercaptomethyl)phenoxy)ethyl)guanidine] | 743 | 2352 | 4661 | 8241
OC[C@@H](O)[C@@H](O)[C@H](O)[C@@H](O)CN(CCOc1ccc(CS)c(CS)c1)C[C@H](O)[C@@H](O)[C@H](O)[C@H](O)CO [N, (2R,2′R,3R,3′R,4R,4′R,5S,5'S)-6,6′-(2-(3,4-bis(mercaptomethyl)phenoxy)ethylazanediyl)dihexane-1,2,3,4,5-pentaol hydrochloride] | 952 | 2366 | 4382 | 9532
CCCCCCN(CCOc1ccc(CS)c(CS)c1)C[C@H](O)[C@@H](O)[C@H](O)[C@H](O)CO [P, (2R,3R,4R,5S)-6-((2-(3,4-bis(mercaptomethyl)phenoxy)ethyl)(hexyl)amino)hexane-1,2,3,4,5-pentaol hydrochloride] | 1018 | 2701 | 6180 | 13243
CN(C)CCOc1ccc(CS)c(CS)c1 [Q, (4-(2-(dimethylamino)ethoxy)-1,2-phenylene)dimethanethiol hydrochloride] | 954 | 2984 | 6077 | 15927
N=C(NCCOc1ccc(CS)c(CS)c1)NC(=O)c1nc(Cl)c(N)nc1N [R, 3,5-diamino-N-(N-(2-(3,4-bis(mercaptomethyl)phenoxy)ethyl)carbamimidoyl)-6-chloropyrazine-2-carboxamide hydrochloride] | 2901 | 7382 | 13522 | 16870
NCCCC[C@H](N)C(=O)NCCCC[C@H](N)C(=O)NCCOc1ccc(CS)c(CS)c1 [S, (S)-2,6-diamino-N-((S)-5-amino-6-(2-(3,4-bis(mercaptomethyl)phenoxy)ethylamino)-6-oxohexyl)hexanamide] | 4483 | 10715 | 13732 | 15469
NCCCC[C@H](N)C(=O)NCCCC[C@H](N)C(=O)NCCCC[C@H](N)C(=O)NCCOc1ccc(CS)c(CS)c1 [T, (S)-2,6-diamino-N-((S)-5-amino-6-((S)-5-amino-6-(2-(3,4-bis(mercaptomethyl)phenoxy)ethylamino)-6-oxohexylamino)-6-oxohexyl)hexanamide] | 5144 | – | – | –
N=C(N)NCCCC[C@H](N)C(=O)NCCCC[C@H](N)C(=O)NCCCC[C@H](N)C(=O)NCCOc1ccc(CS)c(CS)c1 [U, (S)-2-amino-6-((S)-2-amino-6-((S)-2-amino-6-guanidinohexanamido)hexanamido)-N-(2-(3,4-bis(mercaptomethyl)phenoxy)ethyl)hexanamide Hydrochloride] | 5761 | – | – | –
NCCCC[C@H](N)C(=O)NCCCC[C@H](N)C(=O)NCCOc1cc(CS)c(CS)cc1OCCNC(=O)[C@@H](N)CCCCNC(=O)[C@@H](N)CCCCN [X, (S,2S,2′S)-N,N′-(2,2′-(4,5-bis(mercaptomethyl)-1,2-phenylene)bis(oxy)bis(ethane-2,1-diyl))bis(2-amino-6-((S)-2,6-diaminohexanamido)hexanamide)] | 8029 | – | – | –
N=C(N)NCCCC[C@H](N)C(=O)NCCCC[C@H](N)C(=O)NCCOc1cc(CS)c(CS)cc1OCCNC(=O)[C@@H](N)CCCCNC(=O)[C@@H](N)CCCCNC(=N)N [Y, (S,2S,2′S)-N,N′-(2,2′-(4,5-bis(mercaptomethyl)-1,2-phenylene)bis(oxy)bis(ethane-2,1-diyl))bis(2-amino-6-((S)-2-amino-6-guanidinohexanamido)hexanamide)] | 8718 | – | – | –

Source: patent US9346753B2, “Dithiol mucolytic agents” (PARION SCIENCES, INC., priority 2013, dated 2016)
